Test results as given in US11267824B2, “Inhibitors of indoleamine 2,3-dioxygenase and/or tryptophan 2,3-dioxygenase” (IDORSIA PHARMACEUTICALS LTD, priority 2017, dated 2022).

Tests used:
[1] = target: Recombinant full-length human IDO1 (Homo sapiens (Human), UniProt P14902); assay: IDO1 enzymatic assay (IDO inhibitory activity); assay type: biochemical; details: 2 nM enzyme, 5 μM L-tryptophan, pH6.5, 30 min pre-incubation, NFK quantified by LCMS; mean values if measured multiple times; read-out: hIDO activity (IC50 in nM)
Protocol: 1) Testing Compounds for IDO Inhibitory Activity in an IDO1 Enzymatic Assay:
Recombinant full-length human IDO1 with a N-terminal hexahistidine tag expressed in E. coli and purified to homogeneity is incubated at a final concentration of 2 nM in assay buffer consisting of 37.5 mM phosphate buffer at pH6.5 supplemented with 10 mM sodium L-ascorbate, 0.45 μM methylene blue, 50 U/ml catalase, 0.01% BSA, and 0.01% Tween 20 (protocol modified from Seegers et al, JBS 2014). Example compounds are serially diluted in DMSO, further diluted in phosphate buffer, and added to the enzyme at final concentrations ranging from 10 μM to 0.5 nM. The final DMSO concentration is 0.6%. Following a pre-incubation of 30 minutes at RT, the reaction is started by the addition of L-tryptophan at a final concentration of 5 μM in assay buffer. After 30 minutes of incubation at RT, 3 μL of the reaction mixture are transferred to a 384 deep well plate containing 25 μL of deionized water. 100 μl of 200 nM L-Tryptophan-(indole-d5) in cold 100% methanol are added followed by a 10 minutes centrifugation at 4,000 rpm at 4° C. An additional 75 μL of deionized water are then added and followed by a 10 minutes centrifugation at 4,000 rpm at 4° C. The product of the reaction N′-Formylkynurenine (NFK) is quantified by LCMS and normalized to the L-Tryptophan-(indole-d5) signal. Samples with 0.6% DMSO (0% effect) and a TDO/IDO inhibitor (100% effect) are used as control samples to set the parameters for the non-linear regression necessary for the determination of the half-maximal inhibitory concentration (IC50) for each compound. For each compound concentration the percentage of activity compared to 0% and 100% effect is calculated as average ±STDEV (each concentration measured in duplicate). IC50 values and curves are generated with XLfit software (IDBS) using Dose-Response One Site model 203 (four parameter logistic curve model). When compounds are measured multiple times, mean values are given.

[2] = target: Recombinant human TDO comprising amino acids 19-407 (Homo sapiens (Human), UniProt P48775); assay: TDO2 enzymatic assay (TDO inhibitory activity); assay type: biochemical; details: 15 nM enzyme, 200 μM L-tryptophan, pH7, 30 min pre-incubation, NFK quantified by LCMS; mean values if measured multiple times; read-out: hTDO activity (IC50 in nM)
Protocol: 2) Testing Compounds for TDO Inhibitory Activity in a TDO2 Enzymatic Assay:
Recombinant human TDO comprising amino acids 19-407 with a N-terminal hexahistidine tag expressed in E. coli and purified to homogeneity is incubated at a final concentration of 15 nM in assay buffer consisting of 75 mM phosphate buffer at pH7 supplemented with 100 μM ascorbic acid, 50 U/ml Catalase, 0.01% BSA, and 0.01% Tween 20 (protocol modified from Seegers et al, JBS 2014). Example compounds are serially diluted in DMSO, further diluted in phosphate buffer, and added to the reaction mixture at final concentrations ranging from 10 μM to 0.5 nM. The final DMSO concentration is 0.6%. Following a pre-incubation of 30 minutes at RT, the reaction is started by the addition of L-tryptophan at a final concentration of 200 μM in assay buffer. After 30 minutes of incubation at RT, 3 μL of the reaction mixture are transferred to a 384 deep well plate containing 25 μL of deionized water. 100 μl of 200 nM L-Tryptophan-(indole-d5) in cold 100% methanol are added followed by a 10 minutes centrifugation at 4,000 rpm at 4° C. An additional 75 μL of deionized water are then added and followed by a 10 minutes centrifugation at 4,000 rpm at 4° C. The product of the reaction N′-Formylkynurenine (NFK) is quantified by LCMS and normalized to the L-Tryptophan-(indole-d5) signal. Samples with 0.6% DMSO (0% effect) and a TDO/IDO inhibitor (100% effect) are used as control samples to set the parameters for the non-linear regression necessary for the determination of the half-maximal inhibitory concentration (IC50) for each compound. For each compound concentration the percentage of activity compared to 0% and 100% effect is calculated as average±STDEV (each concentration measured in duplicate). IC50 values and curves are generated with XLfit software (IDBS) using Dose-Response One Site model 203 (four parameter logistic curve model). When compounds are measured multiple times, mean values are given.

Chain of Recombinant human TDO comprising amino acids 19-407 (P48775 19-406 limits assumed): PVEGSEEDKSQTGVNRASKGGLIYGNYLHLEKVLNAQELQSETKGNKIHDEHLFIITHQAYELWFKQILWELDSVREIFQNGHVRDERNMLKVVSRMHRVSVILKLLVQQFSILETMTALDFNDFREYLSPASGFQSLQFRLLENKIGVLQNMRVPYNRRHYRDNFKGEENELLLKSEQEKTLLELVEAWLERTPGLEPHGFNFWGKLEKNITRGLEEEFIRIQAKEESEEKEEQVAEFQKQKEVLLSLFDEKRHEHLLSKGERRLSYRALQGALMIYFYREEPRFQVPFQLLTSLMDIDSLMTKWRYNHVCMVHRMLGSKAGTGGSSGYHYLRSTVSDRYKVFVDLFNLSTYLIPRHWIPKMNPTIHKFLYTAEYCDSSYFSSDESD
Chain of Recombinant full-length human IDO1 (P14902 whole entry): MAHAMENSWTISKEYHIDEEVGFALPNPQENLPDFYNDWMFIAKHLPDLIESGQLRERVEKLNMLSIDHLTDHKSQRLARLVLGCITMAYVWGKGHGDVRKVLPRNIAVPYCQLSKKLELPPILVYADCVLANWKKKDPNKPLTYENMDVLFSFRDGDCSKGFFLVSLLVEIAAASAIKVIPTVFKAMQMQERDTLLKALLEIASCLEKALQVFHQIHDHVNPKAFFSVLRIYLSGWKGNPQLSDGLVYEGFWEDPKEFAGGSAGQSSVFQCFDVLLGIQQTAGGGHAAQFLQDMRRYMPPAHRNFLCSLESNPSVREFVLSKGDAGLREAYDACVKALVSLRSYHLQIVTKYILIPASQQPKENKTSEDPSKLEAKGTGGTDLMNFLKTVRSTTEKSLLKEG

SMILES	IC50 [1] [nM]	IC50 [2] [nM]
CC(C)C1CCC(CC(O)c2c(C3CC3)sc3cncn23)CC1 (racemic) [Example 85, rac-1-(2-Cyclopropyl-imidazo[5,1-b]thiazol-3-yl)-2-(4-isopropyl-cyclohexyl)-ethanol]	511	2830
CC(C)(C)C1CCC(C(O)c2c(C3CC3)sc3cncn23)CC1 (racemic) [Example 86, rac-(4-tert-Butyl-cyclohexyl)-(2-cyclopropyl-imidazo[5,1-b]thiazol-3-yl)-methanol]	511	2780
OC(CC1CCC(C2CCC2)CC1)c1c(C2CC2)sc2cncn12 (racemic) [Example 87, rac-2-(4-Cyclobutyl-cyclohexyl)-1-(2-cyclopropyl-imidazo[5,1-b]thiazol-3-yl)-ethanol]	820	3100
OC(c1c(C2CC2)sc2cncn12)C1CCC(C2CCC2)CC1 (racemic) [Example 103, rac-(4-Cyclobutyl-cyclohexyl)-(2-cyclopropyl-imidazo[5,1-b]thiazol-3-yl)-methanol]	70.1	1780
CC1(C(O)c2c(C3CC3)sc3cncn23)CCCCC1 (racemic) [Example 105, rac-(2-Cyclopropyl-imidazo[5,1-b]thiazol-3-yl)-(1-methyl-cyclohexyl)-methanol]	10.6	104
Cc1sc2cncn2c1C(O)C1CC(C)(C)C1 (racemic) [Example 109, rac-(3,3-Dimethyl-cyclobutyl)-(2-methyl-imidazo[5,1-b]thiazol-3-yl)-methanol]	13.6	190
CC1(C)CC(C(O)c2c(C(F)(F)F)sc3cncn23)C1 (racemic) [Example 110, rac-(3,3-Dimethyl-cyclobutyl)-(2-trifluoromethyl-imidazo[5,1-b]thiazol-3-yl)-methanol]	9.81	912
CC1CCC(C(O)c2c(C(F)(F)F)sc3cncn23)CC1 (racemic) [Example 115, rac-(4-Methyl-cyclohexyl)-(2-trifluoromethyl-imidazo[5,1-b]thiazol-3-yl)-methanol]	84.1	1960
CC1(C)CCC(CC(O)c2c(C(F)(F)F)sc3cncn23)CC1 (racemic) [Example 118, rac-2-(4,4-Dimethyl-cyclohexyl)-1-(2-trifluoromethyl-imidazo[5,1-b]thiazol-3-yl)-ethanol]	447	7280
COC1CCC(CC(O)c2c(C3CC3)sc3cncn23)CC1 (racemic) [Example 131, rac-1-(2-Cyclopropyl-imidazo[5,1-b]thiazol-3-yl)-2-(4-methoxy-cyclohexyl)-ethanol]	11.3	1330
OC(CC1CCC(C2CCCC2)CC1)c1c(C2CC2)sc2cncn12 (racemic) [Example 134, rac-2-(4-Cyclopentyl-cyclohexyl)-1-(2-cyclopropyl-imidazo[5,1-b]thiazol-3-yl)-ethanol]	757	2800

More lines, now with the values ahead:

IC50 [1] [nM]	IC50 [2] [nM]	SMILES
382	246	OC(c1c(-c2ccccc2)sc2cncn12)C1CCCCC1 (racemic) [Example 92, rac-Cyclohexyl-(2-phenyl-imidazo[5,1-b]thiazol-3-yl)-methanol]
296	496	OC(CC1CCCCC1)c1c(-c2ccccc2)sc2cncn12 (racemic) [Example 93, rac-2-Cyclohexyl-1-(2-phenyl-imidazo[5,1-b]thiazol-3-yl)-ethanol]
144	181	OC(c1c(-c2ccsc2)sc2cncn12)C1CCCCC1 (racemic) [Example 94, rac-Cyclohexyl-(2-thiophen-3-yl-imidazo[5,1-b]thiazol-3-yl)-methanol]
313	386	OC(CC1CCCCC1)c1c(-c2ccsc2)sc2cncn12 (racemic) [Example 95, rac-2-Cyclohexyl-1-(2-thiophen-3-yl-imidazo[5,1-b]thiazol-3-yl)-ethanol]
10.5	39.9	CCc1sc2cncn2c1C(O)C1CCCCC1 (racemic) [Example 96, rac-Cyclohexyl-(2-ethyl-imidazo[5,1-b]thiazol-3-yl)-methanol]
435	583	CC(C)Cc1sc2cncn2c1C(O)C1CCCCC1 (racemic) [Example 98, rac-Cyclohexyl-(2-isobutyl-imidazo[5,1-b]thiazol-3-yl)-methanol]
837	1070	CC(C)Cc1sc2cncn2c1C(O)CC1CCCCC1 (racemic) [Example 99, rac-2-Cyclohexyl-1-(2-isobutyl-imidazo[5,1-b]thiazol-3-yl)-ethanol]
6.63	299	CCc1sc2cncn2c1C(O)CC1CCCCC1 (racemic) [Example 100, rac-2-Cyclohexyl-1-(2-ethyl-imidazo[5,1-b]thiazol-3-yl)-ethanol]
101	2430	OC(CC1CCCC1)c1c(C(F)(F)F)sc2cncn12 (racemic) [Example 111, rac-2-Cyclopentyl-1-(2-trifluoromethyl-imidazo[5,1-b]thiazol-3-yl)-ethanol]
149	206	Cc1sc2cncn2c1C(O)C1CCCC1 (racemic) [Example 113, rac-Cyclopentyl-(2-methyl-imidazo[5,1-b]thiazol-3-yl)-methanol]
342	881	OC(c1c(-c2cccnc2)sc2cncn12)C1CCCCC1 (racemic) [Example 124, rac-Cyclohexyl-(2-pyridin-3-yl-imidazo[5,1-b]thiazol-3-yl)-methanol]
209	> 10200	Cn1cc(-c2sc3cncn3c2C(O)C2CCCCC2)cn1 (racemic) [Example 125, rac-Cyclohexyl-[2-(1-methyl-1H-pyrazol-4-yl)-imidazo[5,1-b]thiazol-3-yl]-methanol]
3100	1010	Cc1ccc(-c2sc3cncn3c2C(O)C2CCCCC2)cc1 (racemic) [Example 126, rac-Cyclohexyl-(2-p-tolyl-imidazo[5,1-b]thiazol-3-yl)-methanol]
3090	1990	COc1ccc(-c2sc3cncn3c2C(O)C2CCCCC2)cc1 (racemic) [Example 127, rac-Cyclohexyl-[2-(4-methoxy-phenyl)-imidazo[5,1-b]thiazol-3-yl]-methanol]
36.8	595	CCCc1sc2cncn2c1C(O)CC1CCCCC1 (racemic) [Example 129, rac-2-Cyclohexyl-1-(2-propyl-imidazo[5,1-b]thiazol-3-yl)-ethanol]
49.5	153	CCCc1sc2cncn2c1C(O)C1CCCCC1 (racemic) [Example 130, rac-Cyclohexyl-(2-propyl-imidazo[5,1-b]thiazol-3-yl)-methanol]
44.3	591	OC(c1c(C(F)(F)F)sc2cncn12)C1CCCC1 (racemic) [Example 132, rac-Cyclopentyl-(2-trifluoromethyl-imidazo[5,1-b]thiazol-3-yl)-methanol]
